Assay results as given in the supplement of paper PMC10307832.

What was measured:
Experiment in all cases: relative viability (nuclei count vs DMSO), 5 days (fraction); higher = more cells survive
[1] = compound: CC1=CC=C(C=C1)C(=O)CN2C3=C(CCCC3)SC2=N [Pifithrin_alpha] + CC(=O)c1c(C)c2cnc(Nc3ccc(N4CCNCC4)cn3)nc2n(C2CCCC2)c1=O [Palbociclib] (partner 0.5 µM)
In short: (§1)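 Relative viability is defined as nuclei in treated wells over nuclei in vehicle wells. Duplicate plates were run and medians reported. Lung cancer cell lines in 1536-well plates were dosed by pin tool one day after seeding, with one drug or with a fixed anchor-drug dose plus five library-drug doses (not always all listed) in √10 steps, and nuclei were counted after 5 days.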

[2] = compound: CNC(=O)c1ccccc1Sc1ccc2c(/C=C/c3ccccn3)n[nH]c2c1 [Axitinib] + Cc1cc(Nc2cc(N3CCN(C)CC3)nc(Sc3ccc(NC(=O)C4CC4)cc3)n2)n[nH]1 [Tozasertib] (partner 0.1 µM)
In short: as §1

[3] = compound: Nc1nc(Nc2ccc3c(c2)CC[C@@H](N2CCCC2)CC3)nn1-c1cc2c(nn1)-c1ccccc1CCC2 [Bemcentinib] + CC1(C)CCC(c2ccc(Cl)cc2)=C(CN2CCN(c3ccc(C(=O)NS(=O)(=O)c4ccc(N[C@H](CCN5CCOCC5)CSc5ccccc5)c(S(=O)(=O)C(F)(F)F)c4)cc3)CC2)C1 [Navitoclax] (partner 0.5 µM)
In short: as §1

[4] = compound: Nc1nc(Nc2ccc3c(c2)CC[C@@H](N2CCCC2)CC3)nn1-c1cc2c(nn1)-c1ccccc1CCC2 [Bemcentinib] + NC(=O)Nc1cc(-c2cccc(F)c2)sc1C(=O)N[C@H]1CCCNC1 [AZD7762] (partner 0.2 µM)
In short: as §1

Cell Line	relative viability ([1]; first compound 1 µM)	relative viability ([1]; first compound 3.162 µM)	relative viability ([1]; first compound 10 µM)	relative viability ([1]; first compound 31.62 µM)	relative viability ([1]; first compound 100 µM)	relative viability ([2]; first compound 0.005 µM)	relative viability ([2]; first compound 0.01581 µM)	relative viability ([2]; first compound 0.05 µM)	relative viability ([2]; first compound 0.1581 µM)	relative viability ([2]; first compound 0.5 µM)	relative viability ([3]; first compound 0.04 µM)	relative viability ([3]; first compound 0.1265 µM)	relative viability ([3]; first compound 0.4 µM)	relative viability ([3]; first compound 1.265 µM)	relative viability ([3]; first compound 4 µM)	relative viability ([4]; first compound 0.04 µM)	relative viability ([4]; first compound 0.1265 µM)	relative viability ([4]; first compound 0.4 µM)	relative viability ([4]; first compound 1.265 µM)	relative viability ([4]; first compound 4 µM)
NCI-H2085	0.499	0.432	0.449	0.446	0.444	0.652	0.771	0.807	0.827	0.913	1.07	1.07	1.1	1.18	1.1	0.956	1.03	0.863	0.767	0.748
NCI-H2087	0.219	0.198	0.245	0.195	0.207	0.247	0.294	0.282	0.321	0.357	1.16	1.03	1.15	0.992	1.02	1.4	1.41	1.42	1.49	1.47
NCI-H2126	0.333	0.381	0.356	0.302	0.373	0.919	0.859	0.833	0.886	1	0.835	0.929	0.892	0.869	0.833	1.05	1.01	0.999	1.09	1.09
NCI-H2170	0.369	0.396	0.35	0.312	0.452	0.72	0.63	0.768	0.774	0.838	0.701	0.636	0.627	0.675	0.638	0.839	1.07	0.902	0.93	0.925
NCI-H2347	0.468	0.415	0.442	0.386	0.365	0.589	0.524	0.609	0.498	0.675	0.741	0.862	0.864	0.918	0.966	0.684	0.792	0.728	0.67	0.652
NCI-H2405	–	0.508	0.511	0.433	0.503	0.773	0.795	0.853	0.785	1	0.788	0.868	0.859	0.877	0.84	0.744	0.875	0.887	0.819	0.605
NCI-H3122	0.175	0.211	0.193	0.146	0.195	0.38	0.426	0.346	0.415	0.566	1.01	1.06	1.02	1	1.03	0.682	1.04	1.03	1.12	1.06
PC-3 [JPC-3]	–	0.519	–	0.455	0.458	0.96	0.899	1	0.855	1.03	0.803	0.827	0.865	0.848	0.826	0.799	0.899	0.828	0.847	0.812
PC-14	0.651	0.513	0.515	0.191	0.134	0.6	–	0.553	0.558	0.758	1.07	1.12	1.16	1.05	0.997	0.262	0.419	0.328	0.334	0.292
RERF-LC-KJ	0.91	0.974	0.886	0.66	0.635	0.458	0.485	0.535	0.573	0.52	0.815	0.805	0.983	1.01	0.947	0.996	0.957	0.967	0.982	0.888
